These are literature values, as cited in US20070249572A1, “Systems and methods for the delivery of corticosteroids” (Verus Pharmaceuticals, Inc., priority 2005, published 2007).

On to `CCCC1O[C@@H]2C[C@H]3[C@@H]4CCC5=CC(=O)C=C[C@]5(C)[C@H]4[C@@H](O)C[C@]3(C)[C@]2(C(=O)CO)O1` (stereo partly drawn) [budesonide, (R,S)-llβ,16α,17,21-tetrahydroxypregna-1,4-diene-3,20-dione cyclic 16,17-acetal with butyraldehyde], for which the solubility in alcohols entry (alcohols) is “readily soluble in alcohols”. Besides, the solubility in water entry (water) was “virtually insoluble in water”.
